From ChEMBL document CHEMBL1134291, “The synthesis of a prodrug of doxorubicin designed to provide reduced systemic toxicity and greater target efficacy” (J Med Chem, 2001)
Where a SMILES comes first, the peptide text is derived from it. [ ]: non-standard residue; d: D form. The star is where a group is joined. Doxorubicin(3'-N) = COc1cccc2c1C(=O)c1c(O)c3c(c(O)c1C2=O)C[C@@](O)(C(=O)CO)C[C@@H]3O[C@H]1C[C@H](N*)[C@H](O)[C@H](C)O1; X1 = COc1cccc2c1C(=O)c1c(O)c3c(c(O)c1C2=O)C[C@@](O)(C(=O)CO)C[C@@H]3OC1CC(N*)C(O)C(C)O1; Chg = N[C@H](C(=O)O)C1CCCCC1

Key:
LNCaP = assay: Concentration required to kill 50% of tumor cells in PSA producing LNCaP human prostate cancer cell line; type: functional, cell-based
DuPro = assay: Concentration required to kill 50% of tumor cells in PSA nonproducing DuPRO human prostate cancer cell line; type: functional, cell-based
PSA = assay: Time required for PSA to hydrolyze 50% (t1/2); type: ADME; details: PSA (enzyme)

Compound	EC50 (LNCaP) [µM]	EC50 (DuPro) [µM]	half-life (PSA) [h]
COc1cccc2c1C(=O)c1c(O)c3c(c(O)c1C2=O)C[C@@](O)(C(=O)CO)C[C@@H]3O[C@H]1C[C@H](NC(=O)[C@H](C)NC(=O)[C@H](C)NC(=O)[C@H](C)NC(C)=O)[C@H](O)[C@H](C)O1	> 100	> 100	
COc1cccc2c1C(=O)c1c(O)c3c(c(O)c1C2=O)C[C@@](O)(C(=O)CO)C[C@@H]3O[C@H]1C[C@H](NC(=O)[C@H](CC(C)C)NC(=O)[C@H](CO)NC(=O)[C@H](C)NC(=O)[C@H](CO)NC(=O)[C@H](CCC(N)=O)NC(=O)[C@H](Cc2ccc(O)cc2)NC(=O)[C@H](CO)NC(=O)[C@H](C)NC(=O)[C@H](CCCCN)NC(=O)[C@H](CC(N)=O)NC(=O)[C@H](C)NC(C)=O)[C@H](O)[C@H](C)O1 (Ac-ANKASYQSASL-{Doxorubicin(3'-N)})	12.5	> 100	0.5
COc1cccc2c1C(=O)c1c(O)c3c(c(O)c1C2=O)C[C@@](O)(C(=O)CO)C[C@@H]3O[C@H]1C[C@H](NC(=O)[C@H](CC(C)C)NC(=O)[C@H](CO)NC(=O)[C@H](CO)NC(=O)[C@H](CCC(N)=O)NC(=O)[C@H](Cc2ccc(O)cc2)NC(=O)[C@H](CO)NC(=O)[C@H](C)NC(=O)[C@H](CCCCN)NC(=O)[C@H](CC(N)=O)NC(=O)[C@H](C)NC(C)=O)[C@H](O)[C@H](C)O1 (Ac-ANKASYQSSL-{Doxorubicin(3'-N)})	6.3	> 100	
COc1cccc2c1C(=O)c1c(O)c3c(c(O)c1C2=O)C[C@@](O)(C(=O)CO)C[C@@H]3O[C@H]1C[C@H](NC(=O)[C@H](CC(C)C)NC(=O)[C@H](CO)NC(=O)[C@H](CO)NC(=O)[C@H](CO)NC(=O)[C@H](CCC(N)=O)NC(=O)[C@H](Cc2ccc(O)cc2)NC(=O)[C@H](CO)NC(=O)[C@H](C)NC(=O)[C@H](CCCCN)NC(=O)[C@H](CC(N)=O)NC(=O)[C@H](C)NC(C)=O)[C@H](O)[C@H](C)O1 (Ac-ANKASYQSSSL-{Doxorubicin(3'-N)})	7	117	0.5
COc1cccc2c1C(=O)c1c(O)c3c(c(O)c1C2=O)C[C@@](O)(C(=O)CO)C[C@@H]3OC1CC(NC(=O)[C@H](CC(C)C)NC(=O)[C@H](CO)NC(=O)[C@H](CCC(N)=O)NC(=O)[C@H](Cc2ccc(O)cc2)NC(=O)[C@H](CO)NC(=O)[C@H](C)NC(=O)[C@H](CCCCN)NC(C)=O)C(O)C(C)O1 (some centres undefined) (Ac-KASYQSL-X1)	4.8	100	0.5
COc1cccc2c1C(=O)c1c(O)c3c(c(O)c1C2=O)C[C@@](O)(C(=O)CO)C[C@@H]3OC1CC(NC(=O)[C@H](CC(C)C)NC(=O)[C@H](CO)NC(=O)[C@H](CCC(N)=O)NC(=O)[C@@H](NC(=O)[C@H](CO)NC(=O)[C@H](C)NC(=O)[C@H](CCCCN)NC(C)=O)C2CCCCC2)C(O)C(C)O1 (some centres undefined) (Ac-KAS[Chg]QSL-X1)	4.5	> 100	
COc1cccc2c1C(=O)c1c(O)c3c(c(O)c1C2=O)C[C@@](O)(C(=O)CO)C[C@@H]3OC1CC(NC(=O)[C@H](CC(C)C)NC(=O)[C@H](CO)NC(=O)[C@H](CCC(N)=O)NC(=O)[C@@H](NC(=O)[C@H](CO)NC(=O)[C@H](C)NC(=O)[C@@H]2CCCN2C(C)=O)C2CCCCC2)C(O)C(C)O1 (some centres undefined) (Ac-PAS[Chg]QSL-X1)	7.4	> 100	0.75
Ac-ANKASYQSASTE-NH2			0.833
Ac-ANKASYQSSSTE-NH2			1.75
Ac-ANKISYQSAKTE-NH2			2.08
Ac-ANKISYQSASTE-NH2			2.42
Ac-ANKISYQSSKTE-NH2			1.83
Ac-ANKISYQSSSTE-NH2			> 4
Ac-ANKISYYSSSTE-NH2			2.5
H-ANKISYQSS-OH			> 4
H-ANKISYQSSSTE-OH			1.75
H-SQKANKISYQSSSTEERRLHYGENG-OH			0.417
H-SYQSSSTE-OH			> 3
